# Results: ChEMBL document CHEMBL5325393, “A mini-review on synthesis and antiviral activity of natural product oxetanocin A derivatives” (Bioorg Med Chem, 2022)
# Assays:
# HUVEC [1] = assay: Angiogenic activity against HUVEC cells assessed as relative area of tube formation at 100 uM incubated for 96 hrs by Alexa fluor 488 staining based analysis; assay type: functional, Homo sapiens
# Human alphaherpesvirus 2 [2] = assay: Antiviral activity against HSV-2 186 infected in African green monkey Vero cells assessed as reduction in virus induced cytopathogenicity by plaque reduction assay; assay type: functional, organism-based; details: Human alphaherpesvirus 2, 186, Vero
# Hepatitis B virus [3] = assay: Antiviral activity against HBV infected in human HepG2.2.15 cells assessed as reduction in virus induced cytopathogenicity by Southern blot analysis; assay type: functional, organism-based
# [4] = tested on: Human immunodeficiency virus 1; assay: Antiviral activity against HIV-1 HTLV-IIIB infected in human MT4 cells assessed as inhibition of viral replication incubated for 4 days by immunofluorescence assay; assay type: functional, organism-based; details: Human immunodeficiency virus 1, HTLV-IIIB, MT4, 96 h
# Human betaherpesvirus 5 [5] = assay: Antiviral activity against HCMV AD169 infected in HELF cells by plaque reduction assay; assay type: functional, organism-based; details: Human betaherpesvirus 5, AD169, HELF
# [6] = Cytotoxicity against human Detroit 551 cells assessed as inhibition of cell growth by colorimetric method; assay type: toxicity, cell-based
# [7] = Cytotoxicity against human CCD-18Co cells assessed as inhibition of cell growth by colorimetric method; assay type: toxicity, cell-based
# Hepatitis B virus [8] = assay: Antiviral activity against HBV infected in human HB611 cells assessed as inhibition of viral DNA replication incubated for 15 days by SDS-PAGE based autoradiographic analysis; assay type: functional, organism-based; details: HB611, 360 h
# [9] = Cytotoxicity against human HB611 cells assessed as inhibition of cell growth incubated for 48 hrs by colorimetric method; assay type: functional
# HUVEC [10] = assay: Angiogenic activity against HUVEC cells assessed as relative area of tube formation at 100 uM incubated for 10 days by tube formation assay; assay type: functional, Homo sapiens; details: time 10 day
# CEM = assay: Inhibition of HIV reverse transcriptase in human CEM cells at 400 uM relative to control; assay type: cell-based; details: Human immunodeficiency virus
# [11] = tested on: Human immunodeficiency virus 1; assay: Antiviral activity against HIV-1 infected in human CEM cells assessed as inhibition of cytopathogenicity at 400 uM relative to control; assay type: functional; details: Human immunodeficiency virus 1, CCRF-CEM
# [12] = tested on: Human immunodeficiency virus 1; assay: Antiviral activity against HIV-1 assessed as inhibition of viral replication; assay type: functional, organism-based
# [13] = tested on: Human immunodeficiency virus 1; assay: Antiviral activity against HIV-1 HTLV-IIIB infected in human MT4 cells assessed as reduction in virus induced cytopathogenicity by immunofluorescence assay; assay type: functional, organism-based; details: Human immunodeficiency virus 1, HTLV-IIIB
# Human alphaherpesvirus 2 [14] = assay: Antiviral activity against HSV-2 assessed as inhibition of cytopathic effect at 5.8 ug per well relative to control; assay type: functional
# [15] = Cytotoxicity against African green monkey Vero cells assessed as inhibition of cell growth at 132.6 microg/ml relative to control; assay type: toxicity, cell-based; details: chlorocebus sabaeus, at 132.6 µg/mL
# Human betaherpesvirus 5 [16] = assay: Antiviral activity against HCMV assessed as inhibition of viral growth; assay type: functional, organism-based
# [17] = tested on: Human immunodeficiency virus 1; assay: Antiviral activity against HIV-1 HTLV-IIIB infected in human MT4 cells assessed as inhibition of viral replication; assay type: functional, organism-based; details: Human immunodeficiency virus 1, HTLV-IIIB
# [18] = tested on: Human immunodeficiency virus; assay: Antiviral activity against HIV infected in human MT4 cells by plaque reduction assay; assay type: functional, organism-based; details: Human immunodeficiency virus 1, MT4
# [19] = tested on: Human immunodeficiency virus; assay: Antiviral activity against HIV RF assessed as inhibition of viral growth; assay type: functional, organism-based; details: Human immunodeficiency virus 1, RF
# [20] = tested on: Human immunodeficiency virus 1; assay: Antiviral activity against HIV-1 III B infected in PBMC assessed as inhibition of viral replication at 100 microM relative to control; assay type: functional; details: Human immunodeficiency virus 1, III B
# [21] = tested on: Human immunodeficiency virus 2; assay: Antiviral activity against HIV-2 D194 infected in PBMC assessed as inhibition of viral replication at 45 microM relative to control; assay type: functional; details: Human immunodeficiency virus 2, D194, PBMC
# Human alphaherpesvirus 1 [22] = assay: Antiviral activity against HSV-1 assessed as inhibition of viral growth; assay type: functional, organism-based
# Human alphaherpesvirus 2 [23] = assay: Antiviral activity against HSV-2 assessed as inhibition of viral growth; assay type: functional, organism-based
# Hepatitis B virus [24] = assay: Antiviral activity against HBV assessed as inhibition of viral growth; assay type: functional, organism-based
# [25] = tested on: Human immunodeficiency virus; assay: Antiviral activity against HIV assessed as inhibition of viral growth; assay type: functional, organism-based; details: Human immunodeficiency virus 1
# Murid betaherpesvirus 1 = assay: Antiviral activity against MCMV Smith infected in MEF cells assessed as reduction in plaque formation by plaque reduction assay; assay type: functional; details: Murid betaherpesvirus 1, Smith, read-out: ED50 (the source's name)
# Cytomegalovirus = assay: Antiviral activity against CMV AD-169 infected in HEL cells assessed as reduction in virus plaque formation; assay type: functional, organism-based; details: Human betaherpesvirus 5, AD-169, HEL
# [26] = tested on: Human immunodeficiency virus 1; assay: Antiviral activity against HIV-1 III B infected in PBMC assessed as inhibition of viral growth; assay type: functional, organism-based; details: Human immunodeficiency virus 1, III B
# [27] = tested on: Human immunodeficiency virus 2; assay: Antiviral activity against HIV-2 D194 infected in PBMC assessed as inhibition of viral growth; assay type: functional, organism-based; details: Human immunodeficiency virus 2, D194, PBMC
# Human alphaherpesvirus 3 [28] = assay: Antiviral activity against thymidine kinase positive VZV Ellen infected in HFF cells assessed as reduction in viral replication incubated for 10 days by crystal violet staining based microplate reader analysis; assay type: functional, organism-based; details: Human alphaherpesvirus 3, Ellen, 240 h
# Human alphaherpesvirus 3 [29] = assay: Antiviral activity against thymidine kinase positive VZV OKA infected in HFF cells assessed as reduction in viral replication incubated for 10 days by crystal violet staining based microplate reader analysis; assay type: functional, organism-based; details: Human alphaherpesvirus 3, OKA, 240 h
# Human alphaherpesvirus 3 [30] = assay: Antiviral activity against thymidine kinase positive VZV DKG infected in HFF cells assessed as reduction in viral replication incubated for 10 days by crystal violet staining based microplate reader analysis; assay type: functional, organism-based; details: Human alphaherpesvirus 3, DKG, 240 h
# Human alphaherpesvirus 3 [31] = assay: Antiviral activity against thymidine kinase positive VZV V8907 infected in HFF cells assessed as reduction in viral replication incubated for 10 days by crystal violet staining based microplate reader analysis; assay type: functional, organism-based; details: Human alphaherpesvirus 3, V8907, HFF, 240 h
# Human alphaherpesvirus 3 [32] = assay: Antiviral activity against thymidine kinase positive VZV V8602/5-1-1 infected in HFF cells assessed as reduction in viral replication incubated for 10 days by crystal violet staining based microplate reader analysis; assay type: functional, organism-based; details: Human alphaherpesvirus 3, V8602/5-1-1, HFF, 240 h
# Human alphaherpesvirus 1 [33] = assay: Antiviral activity against thymidine kinase positive HSV-1 E-377 infected in HFF cells assessed as reduction in viral replication incubated for 3 days by crystal violet staining based microplate reader analysis; assay type: functional, organism-based; details: Human alphaherpesvirus 1, E-377, HFF, 72 h
# Human alphaherpesvirus 1 [34] = assay: Antiviral activity against thymidine kinase positive HSV-1 123 infected in HFF cells assessed as reduction in viral replication incubated for 3 days by crystal violet staining based microplate reader analysis; assay type: functional, organism-based; details: Human alphaherpesvirus 1, 123, HFF, 72 h
# Human alphaherpesvirus 1 [35] = assay: Antiviral activity against thymidine kinase positive HSV-1 SC-16 infected in HFF cells assessed as reduction in viral replication incubated for 3 days by crystal violet staining based microplate reader analysis; assay type: functional, organism-based; details: Human alphaherpesvirus 1, SC-16, HFF, 72 h
# [36] = Antiproliferative against human HFF cells assessed as inhibition of cell growth by neutral red uptake analysis; assay type: toxicity, cell-based
# Human alphaherpesvirus 1 [37] = assay: (§1) Antiviral activity against lethal systemic HSV-1 123 infected in po dosed Swiss mouse model assessed as increase in animal survival administered as single double strength loading dose at 7 hrs post-inoculation and single strength dose at 23, 31, 47, 55, 71, 79 hrs post-inoculation and monitored for 21 days; assay type: functional; details: time 21 day
# Human alphaherpesvirus 1 [38] = assay: as §1, with “intracerebral” for “systemic”; assay type: functional; details: time 21 day
smiles,measurement,setting,value
Nc1nc(I)nc2c1ncn2[C@@H]1C[C@H](CO)[C@H]1CO,Ratio,HUVEC [1],2.01
Nc1ccn([C@@H]2CS[C@H](CO)O2)c(=O)n1 [LAMIVUDINE],EC50,Human alphaherpesvirus 2 [2],0.39 µg/mL
same,EC50,Hepatitis B virus [3],0.009 µg/mL
Nc1nc2c(ncn2[C@@H]2O[C@H](CO)[C@H]2CO)c(=O)[nH]1,EC50,[4],2.2 µM
same,IC50,Human betaherpesvirus 5 [5],1 µM
same,IC50,[6],> 300 µM
same,IC50,[7],> 300 µM
same,IC50,Hepatitis B virus [8],1.5 µM
same,CC50,[9],> 1000 µM
Nc1nc(Cl)nc2c1ncn2C1CC2(C1)CC(CO)(CO)C2,Ratio,HUVEC [10],3.59
CC(C)Oc1nc(N)c2ncn([C@@H]3C[C@H](CO)[C@H]3CO)c2n1,Ratio,HUVEC [10],1.9
Nc1nc2c(ncn2[C@H]2C[C@@](O)(CO)C2)c(=O)[nH]1,inhibition,CEM,< 50%
same,inhibition at 400 µM,[11],59%
O=c1[nH]cnc2c1ncn2[C@H]1CC[C@@H](CO)O1 [DIDANOSINE],EC50,[12],0.46 µg/mL
same,EC50,[13],0.46 µg/mL
Nc1ncnc2c1ncn2[C@@H]1O[C@H](CO)[C@H]1CO,EC50,[4],1.4 µM
same,EC50,[12],1.4 µg/mL
same,inhibition at 5.8 µg/disc,Human alphaherpesvirus 2 [14],50%
same,inhibition at 132.6 microg/ml,[15],50%
same,IC50,Human betaherpesvirus 5 [16],13 µg/mL
same,IC50,[17],1.7 µM
same,IC50,Human betaherpesvirus 5 [5],13 µM
same,IC50,[18],4.3 µg/mL
same,IC50,[19],0.5 µg/mL
Nc1nc2c(ncn2[C@H]2C[C@@](F)(CO)C2)c(=O)[nH]1,inhibition at 100 µM,[20],30%
same,inhibition at 45 µM,[21],50%
Nc1ncnc2c1ncn2N1C[C@H](CO)[C@H]1CO,EC50,[12],0.37 µg/mL
same,EC50,Human alphaherpesvirus 1 [22],33.2 µg/mL
same,EC50,Human alphaherpesvirus 2 [23],34.9 µg/mL
Nc1nc(Cl)nc2c1ncn2[C@H]1C[C@H](CO)C1,Ratio,HUVEC [10],3.32
Nc1ncnc2c1ncn2[C@@H]1C[C@H](CO)[C@H]1CO,IC50,Human betaherpesvirus 5 [16],12 µM
same,IC50,Human alphaherpesvirus 1 [22],1.6 µM
same,IC50,Human alphaherpesvirus 2 [23],1.6 µM
same,IC50,Hepatitis B virus [24],0.024 µM
same,IC50,[25],0.03 µM
same,EC50,Murid betaherpesvirus 1,0.05 µg/mL
C=C1C[C@@H](n2cnc3c(=O)[nH]c(N)nc32)[C@@H]1CO,EC50,Cytomegalovirus,70 µg/mL
Nc1nc(=O)c2ncn([C@@H]3C[C@H](CO)[C@H]3CO)c2[nH]1 [LOBUCAVIR],IC50,Human betaherpesvirus 5 [16],0.4 µM
same,IC50,Human alphaherpesvirus 1 [22],0.047 µM
same,IC50,Human alphaherpesvirus 2 [23],0.08 µM
same,IC50,Hepatitis B virus [24],0.86 µM
same,IC50,[25],0.3 µM
same,EC50,Murid betaherpesvirus 1,0.1 µg/mL
O=c1[nH]cnc2c1ncn2[C@H]1C[C@@](F)(CO)C1,IC50,[26],95 µM
same,IC50,[27],46 µM
Nc1nc(Cl)nc2c1ncn2[C@@H]1O[C@H](CO)[C@H]1CO,IC50,[17],0.44 µM
Cc1cn([C@@H]2O[C@H](CO)[C@H]2CO)c(=O)[nH]c1=O,EC50,Human alphaherpesvirus 3 [28],0.01 µM
same,EC50,Human alphaherpesvirus 3 [29],0.01 µM
same,EC50,Human alphaherpesvirus 3 [30],0.01 µM
same,EC50,Human alphaherpesvirus 3 [31],0.01 µM
same,EC50,Human alphaherpesvirus 3 [32],0.01 µM
same,EC50,Human alphaherpesvirus 1 [33],0.012 µM
same,EC50,Human alphaherpesvirus 1 [34],0.012 µM
same,EC50,Human alphaherpesvirus 1 [35],0.012 µM
same,IC50,[36],> 100 µM
same,ED50,Human alphaherpesvirus 1 [37],142 mg/kg.day
same,ED50,Human alphaherpesvirus 1 [38],211 mg/kg.day
Nc1nc2c(ncn2[C@H]2C[C@@H](CO)C2)c(=O)[nH]1,EC50,[25],8 µM
